The values below come from US20110182909A1, “Glufosfamide combination therapy” (priority 2004, published 2011).

Like-named read-outs stand apart in the source and are kept apart here.

Data set [1] deals with Ramos cells (Burkitt's lymphoma). In words: Alamar Blue cell proliferation assay (3 days). It counts as cell-based. The settings on record: for Cell proliferation as % control: 3 days; for IC50: single agent. The protocol: Ramos cells lines (Burkitt's lymphoma) were obtained from the American Type Culture Collection (ATCC, Rockville, Md.). All cell lines were cultured in Dulbecco's modified Eagle's medium supplemented with 10% fetal calf serum, sodium pyruvate, nonessential amino acids, L-glutamine, vitamins, and antibiotics. Cells were maintained in a humidified incubator containing 5% CO2, 21% O2, at 37° C. All chemical reagents were purchased from Sigma Chemical Co. (St. Louis, Mo.) unless otherwise specified. Glufosfamide was provided directly by Threshold Pharmaceuticals and reconstituted in PBS freshly for each study.
To determine the effect of the combinations of the present invention on cell proliferation, the antiproliferative activity of these combinations was tested in a multi-well Alamar Blue based assay (at 3 days). Cell growth in the presence and absence of the test compound as tabulated in Table 1 was compared, as measured by a fluorescence plate reader at excitation 550 nm and emission 590 nm (see Biosource International Inc., Tech Application Notes, Use of Alainar Blue in the measurement of Cell Viability and Toxicity, Determining IC50). Ramos cells (Burkitt's lymphoma) (ATCC Catalog #CRL-1596), 3000 cells/well/180 μl) were seeded in a 96 well plate in RPMI medium (Invitrogen Corporation, Carlsbad, Calif.) and incubated overnight. After 24 hours, these plates were divided into Control group and 3 day treatment group.
A test compound (Glufosfamide, Carboplatin, or Etoposide) was added to each plate in the treatment groups at a concentration as tabulated in Tables 1A-1D (in 200 μl of medium, respectively). The cells were incubated for 3 days, followed by staining with AlamarBlue. In the Control group, AlamarBlue was added to the plate at (i) day 0 and (ii) day 3 and measured to establish the control reading. In all the groups, the capacity of the cells to proliferate was measured 17 hours after addition of AlamarBlue using a fluorescence plate reader at excitation 550 nm and emission 590 nm. […] Dose dependent percent inhibition was calculated using Graphpad Prism® (GraphPad Software, Inc.). These values were then applied against the Combination Index (CI) method as described by Chou and Talalay (Chou, T. C. and Talalay, P., Quantitative analysis of dose-effect relationships: The combined effects of multiple drugs or enzyme inhibitors. Adv. Enz. Regul. 22:27-55, 1984) using CalcuSyn software (Biosoft).
The effect of the combinations of the present invention on cell proliferation was determined by comparing cell growth in the presence and absence of the test combinations as tabulated in the tables below according to the procedure described above.
(Alamar Blue is a resazurin reagent that responds to reducing activity.)

For data set [2] the following is noted: in contrast to ifosfamide; cited from earlier work.
For data set [3] the following is noted: mesna given concomitantly with ifosfamide; cited from earlier work.

On to `N.N.O=C([O-])C1(C(=O)[O-])CCC1.[Pt+2]` [Carboplatin], for which the “Cell proliferation as % control” value in data set [1] (Table 1A, Carboplatin 0.4 μM) amounted to 97 % control; in data set [1] (Table 1A, Carboplatin 3.7 μM), 94 % control; in data set [1] (Table 1A, Carboplatin 11 μM) it was 68 % control; in data set [1] (Table 1A, Carboplatin 33 μM) it was 46 % control; in data set [1] (Table 1A, Carboplatin 100 μM), 0 % control; in data set [1] (Table 1A, Carboplatin 300 μM) it was 0 % control. Also, the “Cell proliferation as % control” value in data set [1] (Table 1C, Carboplatin 0.4 μM) is recorded as 98 % control; in data set [1] (Table 1C, Carboplatin 3.7 μM), 89 % control; in data set [1] (Table 1C, Carboplatin 11 μM) it was 74 % control; in data set [1] (Table 1C, Carboplatin 33 μM), 45 % control; in data set [1] (Table 1C, Carboplatin 100 μM), 0 % control; in data set [1] (Table 1C, Carboplatin 300 μM), 0 % control. Moreover, the IC50 in data set [1] (Table 1B, 3 days (from Table 1A), read-out: IC50) was 25 µM; in data set [1] (Table 1D, 3 days (from Table 1C), read-out: IC50) it was 25 µM.

Turning to `COc1cc([C@@H]2c3cc4c(cc3[C@@H](O[C@@H]3O[C@@H]5CO[C@@H](C)O[C@H]5[C@H](O)[C@H]3O)[C@H]3COC(=O)[C@H]23)OCO4)cc(OC)c1O` [Etoposide], the 50% inhibitory concentration (IC50) in data set [1] (Homo sapiens, 72 h, Table 1B, 3 days (from Table 1A), read-out: IC50) is below 0.13 µM; in data set [1] (Homo sapiens, 72 h, Table 1D, 3 days (from Table 1C), read-out: IC50) it was 0.076 µM. In addition, the “Cell proliferation as % control” value is 37 % control in data set [1] (Table 1A, Etoposide 0.13 μM); 26 % control in data set [1] (Table 1A, Etoposide 0.4 μM); 3 % control in data set [1] (Table 1A, Etoposide 3.7 μM); 0 % control in data set [1] (Table 1A, Etoposide 11 μM); 0 % control in data set [1] (Table 1A, Etoposide 33 μM); 0 % control in data set [1] (Table 1A, Etoposide 100 μM). Besides, the “Cell proliferation as % control” value is 97 % control in data set [1] (Table 1C, Etoposide 0.004 μM); 91 % control in data set [1] (Table 1C, Etoposide 0.013 μM); 62 % control in data set [1] (Table 1C, Etoposide 0.04 μM); 35 % control in data set [1] (Table 1C, Etoposide 0.37 μM); 14 % control in data set [1] (Table 1C, Etoposide 1.1 μM); 0 % control in data set [1] (Table 1C, Etoposide 3.3 μM). The “Cell proliferation as % control” value in data set [1] (Table 1C, Etoposide 10 μM) stood at 0 % control.

Consider `O=P(NCCCl)(NCCCl)OC1OC(CO)C(O)C(O)C1O` [Glufosfamide, α-D-glucosyl-ifosfamide mustard], for which the production of chloroacetaldehyde result in data set [2] is given as “produces less chloroacetaldehyde”. Also, the “release of the toxic metabolite acrolein” value in data set [2] is listed as “does not release the toxic metabolite acrolein”. Further, the IC50 in data set [1] (Homo sapiens, 72 h, Table 1B, 3 days (from Table 1A)) stood at 180 µM; in data set [1] (Homo sapiens, 72 h, Table 1D, 3 days (from Table 1C)) it was 120 µM. The “Cell proliferation as % control” value was 91 % control in data set [1] (Table 1A, Glufosfamide 0.7 μM); 92 % control in data set [1] (Table 1A, Glufosfamide 2 μM); 94 % control in data set [1] (Table 1A, Glufosfamide 6 μM); 81 % control in data set [1] (Table 1A, Glufosfamide 19 μM); 65 % control in data set [1] (Table 1A, Glufosfamide 56 μM); 65 % control in data set [1] (Table 1A, Glufosfamide 167 μM). Also, the “Cell proliferation as % control” value is given as 0 % control in data set [1] (Table 1A, Glufosfamide 500 μM); 91 % control in data set [1] (Table 1C, Glufosfamide 9 μM); 79 % control in data set [1] (Table 1C, Glufosfamide 19 μM); 70 % control in data set [1] (Table 1C, Glufosfamide 37.5 μM); 64 % control in data set [1] (Table 1C, Glufosfamide 75 μM); 54 % control in data set [1] (Table 1C, Glufosfamide 150 μM). In addition, the “Cell proliferation as % control” value stood at 11 % control in data set [1] (Table 1C, Glufosfamide 300 μM) and 0 % control in data set [1] (Table 1C, Glufosfamide 600 μM).

As for `O=S(=O)(O)CCS` [mesna, mercaptoethane sulfonate sodium], the “patients who do not respond to mesna and develop hematuria” value in data set [3] is “up to 6%”.

As a reminder, the IC50 is the concentration that gives 50% inhibition.
